Results from publication PMC10412636, “An analysis of interactions between three structurally diverse anthocyanidins, as well as their glucosides, and model biological membranes, albumin, and plasmid DNA” (Scientific Reports, 2023).

How the values were obtained:
[1] = MC540 probe fluorescence intensity in MM liposomes; settings: 37 °C, positive = decrease
Protocol: (§1) Two types of liposomes were used to study interactions with biological membranes: liposomes mimicking the composition of cancer cell membranes (mimic membrane liposome—MM) and liposomes formed from lipids extracted from human blood erythrocyte membranes (red blood cell membrane liposome—RBCM). […] Both lipids, dissolved in chloroform (MM liposome) and n-decane (RBCM liposome), were evaporated under a nitrogen atmosphere, and then dried in a desiccator for 90 min under a vacuum. The obtained dry lipid film was hydrated in phosphate buffer, pH 7.4, obtaining a concentration of 0.1 mg/ml, and then vortexed for one minute until a homogeneous, milky suspension was observed. The mixture was sonicated (Sonic, Milano, Italia) for 15 min keeping the sample in a bath of ice water, thus providing a cooling temperature of 0 °C. The suspension was then processed (extrusion) through polycarbonate filters with pore diameters of 100 and 200 nm using a Lipex extruder (Evonik). Liposomes, which had been prepared according to this procedure, was used in fluorimetric studies.
(§2) To investigate these properties three fluorescent probes were used: MC540, TMA-DPH, and DPH. MC540 localizes to the outer, hydrophilic part of the membrane, within the region of the glycerol skeleton[44]. Changes in the fluorescence intensity of this probe were formulated as the relative change in intensity to the control as a function of anthocyanins concentration. The TMA-DPH and DPH probes are supposed to locate nearer to the interface and in the hydrophobic region, respectively[45]. The measurement of changes in the anisotropy of the TMA-DPH and DPH probes allowed us to reflect the mobility of the fluorescent probes in the membrane, and therefore to determine the fluidity of the bilayer[46]. Fluorescence anisotropy was calculated using the formula[47]:1 A=I‖-GI⊥/I‖+2GI⊥ where I‖ and I⊥ are the intensity of fluorescence in parallel and perpendicular directions, to the plane of polarization of the excitation wave, respectively. G is an apparatus constant that depends on the emission wavelength.
(§3) Liposomes (the concentration of lipids in the sample was 0.1 mg/ml) were incubated for 30 min with the appropriate probe (dissolved in DMF, 1 µM concentration), and then the tested anthocyanins were added (final concentration of 1 to 30 µM). The control sample consisted of liposomes and a fluorescent probe. Fluorescence was measured on a fluorimeter (Cary Eclipse, Varian, San Diego, USA) at 37 °C. The excitation wavelengths λex and emission wavelengths λem respectively: MC540—λexc = 540 nm, λem = 590 nm; DPH—λexc = 360 nm, λem = 425 nm. nm; TMA-DPH—λexc = 340 nm, λem = 430 nm.

[2] = MC540 probe fluorescence intensity in RBCM liposomes; design: species or system human; settings: 37 °C, positive = decrease
Protocol: as §1, §2, §3

[3] = TMA-DPH probe fluorescence anisotropy in MM liposomes; settings: negative = increase in anisotropy
Protocol: as §1, §2, §3

[4] = TMA-DPH probe fluorescence anisotropy in RBCM liposomes; design: species or system human; settings: negative = increase in anisotropy
Text: Two types of liposomes were used to study interactions with biological membranes: liposomes mimicking the composition of cancer cell membranes (mimic membrane liposome—MM) and liposomes formed from lipids extracted from human blood erythrocyte membranes (red blood cell membrane liposome—RBCM). […] The RBCM liposome was according to the methodology described previously[42] with minor modifications[43]. Both lipids, dissolved in chloroform (MM liposome) and n-decane (RBCM liposome), were evaporated under a nitrogen atmosphere, and then dried in a desiccator for 90 min under a vacuum. The obtained dry lipid film was hydrated in phosphate buffer, pH 7.4, obtaining a concentration of 0.1 mg/ml, and then vortexed for one minute until a homogeneous, milky suspension was observed. The mixture was sonicated (Sonic, Milano, Italia) for 15 min keeping the sample in a bath of ice water, thus providing a cooling temperature of 0 °C. The suspension was then processed (extrusion) through polycarbonate filters with pore diameters of 100 and 200 nm using a Lipex extruder (Evonik). Liposomes, which had been prepared according to this procedure, was used in fluorimetric studies.
To investigate these properties three fluorescent probes were used: MC540, TMA-DPH, and DPH. MC540 localizes to the outer, hydrophilic part of the membrane, within the region of the glycerol skeleton[44]. […] The TMA-DPH and DPH probes are supposed to locate nearer to the interface and in the hydrophobic region, respectively[45]. The measurement of changes in the anisotropy of the TMA-DPH and DPH probes allowed us to reflect the mobility of the fluorescent probes in the membrane, and therefore to determine the fluidity of the bilayer[46]. Fluorescence anisotropy was calculated using the formula[47]:1 A=I‖-GI⊥/I‖+2GI⊥ where I‖ and I⊥ are the intensity of fluorescence in parallel and perpendicular directions, to the plane of polarization of the excitation wave, respectively. G is an apparatus constant that depends on the emission wavelength.
as §3

[5] = DPH probe fluorescence anisotropy in MM liposomes; settings: MM, negative = increase in anisotropy
Protocol: as §1, §2, §3

[6] = DPH probe fluorescence anisotropy in RBCM liposomes; design: species or system human; settings: RBCM, negative = increase in anisotropy
Protocol: as §1, §2, §3

[7] = DPH fluorescence quenching, dissociation constant with MM liposome membrane; type: binding; settings: 37 °C
Protocol: as §1
(§4) The phenomenon of quenching the fluorescence of the DPH probe by biologically active substances enabled us to evaluate the partition coefficient (Kd, dissociation constant) of anthocyanins with both MM and RBCM liposome membranes. For this purpose, changes in the fluorescence intensity of this probe were checked and the coefficient was calculated using the equation[48]:2 1/F0/F-1=Kd/[liposomes]×1/[anthocyanins]+1/liposomes where F0—fluorescence intensity in the absence of anthocyanins (control sample), F—fluorescence intensity in the presence of anthocyanins, [liposomes]—concentration of liposomes in mg/ml, [anthocyanins]—concentration of anthocyanins tested mg/ml.
as §3

[8] = DPH fluorescence quenching, dissociation constant with RBCM liposome membrane; type: binding, human; settings: 37 °C
Protocol: as §1, §4, §3

[9] = molecular target: human serum albumin (HSA) (Homo sapiens, UniProt P02768); assay: Quenching of natural fluorescence of human serum albumin; type: binding; settings: HSA […] 10^–5 M, 37 °C
Protocol: The phenomenon of quenching the natural fluorescence of human serum albumin (HSA) was used to investigate the potential interaction of anthocyanins with this protein. […] Anthocyanins with concentrations ranging from 1 to 30 µM were added to HSA dissolved in phosphate buffer (1.5 × 10^–5 M) and then incubated at 37 °C for 20 min. Emission spectra were performed on a fluorimeter Cary Eclipse (Varian, San Diego, USA) at 37 °C. HSA fluorescence was excited with a wavelength of λ = 280 nm, the emission was measured in the range from 286 to 460 nm, and the fluorescence intensity was read at 345 nm where the emission maximum of HSA was located.
The Stern–Volmer equation was used to thoroughly describe the quenching mechanism of natural fluorescence and to determine the bindings parameters of HSA: anthocyanin complexes:4 F0/F=1+Kqτ0Q=1+KSV[Q] where F0—fluorescence intensity in the absence of anthocyanins (control sample), F—fluorescence intensity in the presence of anthocyanins, KSV—Stern–Volmer quenching constant (KSV = Kq·τ0), [Q]—concentration of quencher (tested compound), Kq—bimolecular quenching constant, τ0—a lifetime of the fluorophore in the absence of quencher the fluorescence lifetime of a biopolymer is calculated as 5 × 10^–9 s[51].
The apparent binding constants (Kb) and the number of binding sites (n) can be calculated using the following equation:5 log(F0-F/F]=logKb+nlog[Q]
F0 and F are the fluorescence intensities before and after the addition of the quencher. From the linear plot of log (F0 − F)/F versus log [Q], the value of Kb was obtained from the intercept.

pHbApr-1-Neo plasmid DNA = assay: TCSPC-FCS of PicoGreen-labelled plasmid DNA with anthocyanins; type: binding; settings: for decrease in the diffusion time (tD): from about 70 ms; for Particle Number (PN): plasmid alone 5; for diffusion time (tD): plasmid alone about 70 ms
Protocol: To evaluate the biological interaction with DNA molecules the anthocyanins were initially dissolved in ETOH (1 mM). […] Mixing of such solutions with the aqueous DNA solutions used in the studies never exceeded 1% concentration ETOH (v/v) in the final solution. The DNA plasmid was labelled by PicoGreen (CPicoGreen/CDNAbp = 0.02)[52]. The pHbApr-1-Neo plasmid (10 kbp and contour length 3.4 µm) was a generous gift from the laboratory of Prof. Maciej Ugorski (Department of Biochemistry and Molecular Biology, Wrocław University of Environmental and Life Sciences Wroclaw, Poland). PicoGreen-labelled DNA samples mixed with the appropriate amount of anthocyanins were left overnight and then measured. The increasing concentration of anthocyanins in the tested samples was expressed as the ratio of the molar concentration of anthocyanins per molar concentration of DNA base pairs in a given sample (comp/bp). The 100 µl samples were measured in Ibidi 8-well chambers. Each point on the graph is a single sample (average of 10 measurements). All measurements were performed at room temperature (25 °C). Time-correlated single-photon counting fluorescence correlation spectroscopy (TCSPC-FCS) was used to study the interaction of plasmid DNA at the single molecule level with all tested anthocyanins. […] Low power of 1uW (at the back aperture of the objective) was chosen to minimize photobleaching and saturation. In the detection plane, a pinhole (50um in diameter) was used and the signal was collected by a single photon avalanche diode (SPAD, Microphoton Devices, Bolzano, Italy). Photon arrival times were stored using fast electronics (Picoharp 300, PicoQuant) in time-tagged time-resolved recording mode. Two independent times were assigned to each detected photon: (1) a time after the beginning of the measurement and (2) a time after the previous laser pulse. The FCS data analysis was done using home-built routines (DevC++, Bloodshed Software and OriginPro70, OriginLab Corporation). The TCSPC data analysis was performed using SymPhoTime software (PicoQuant). Further details of the data evaluation are given elsewhere.

[10] = 30 µM, listed as petunidin glucoside

Chain of human serum albumin (HSA) (P02768 25-609): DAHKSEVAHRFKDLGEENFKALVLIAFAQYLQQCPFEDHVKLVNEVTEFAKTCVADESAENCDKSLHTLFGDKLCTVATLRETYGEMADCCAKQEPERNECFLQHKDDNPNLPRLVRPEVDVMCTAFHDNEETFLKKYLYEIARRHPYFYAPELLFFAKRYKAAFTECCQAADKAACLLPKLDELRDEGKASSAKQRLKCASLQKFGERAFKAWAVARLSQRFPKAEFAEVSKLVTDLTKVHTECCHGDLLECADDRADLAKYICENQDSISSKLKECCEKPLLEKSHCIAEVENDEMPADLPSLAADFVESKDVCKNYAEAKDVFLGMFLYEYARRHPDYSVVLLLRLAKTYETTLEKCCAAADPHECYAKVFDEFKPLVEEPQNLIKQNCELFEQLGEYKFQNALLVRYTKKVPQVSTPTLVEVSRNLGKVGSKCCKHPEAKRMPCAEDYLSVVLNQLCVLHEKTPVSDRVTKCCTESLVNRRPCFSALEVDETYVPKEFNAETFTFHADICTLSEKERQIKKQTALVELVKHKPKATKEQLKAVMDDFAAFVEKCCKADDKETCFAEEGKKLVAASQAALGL

Structure (SMILES): Oc1cc(O)c2cc(O)c(-c3cc(O)c(O)c(O)c3)[o+]c2c1 [Dp, Delphinidin]
- Changes in MC540 fluorescence intensity relative to the control ([1]; 1 µM): 13.66±1.64%
- Changes in MC540 fluorescence intensity relative to the control ([1]; 5 µM): 26.57±1.99%
- Changes in MC540 fluorescence intensity relative to the control ([1]; 10 µM): 41.91±1.76%
- Changes in MC540 fluorescence intensity relative to the control ([1]; 20 µM): 63.50±4.28%
- Changes in MC540 fluorescence intensity relative to the control ([1]; 30 µM): 73.23±5.31%
- Changes in MC540 fluorescence intensity relative to the control ([1]; 30 µM, listed as delphinidin): 73.2 ± 5.3%
- Changes in MC540 fluorescence intensity relative to the control ([2]; 1 µM): 19.22±0.56%
- Changes in MC540 fluorescence intensity relative to the control ([2]; 5 µM): 30.39±0.90%
- Changes in MC540 fluorescence intensity relative to the control ([2]; 10 µM): 42.45±2.77%
- Changes in MC540 fluorescence intensity relative to the control ([2]; 20 µM): 58.15±3.73%
- Changes in MC540 fluorescence intensity relative to the control ([2]; 30 µM): 64.08±6.62%
- Changes in MC540 fluorescence intensity relative to the control ([2]; 30 µM, listed as delphinidin): 64.1 ± 6.6%
- Changes in TMA-DPH anisotropy relative to the control ([3]; 1 µM): -5.27±0.20%
- Changes in TMA-DPH anisotropy relative to the control ([3]; 5 µM): -5.27±0.16%
- Changes in TMA-DPH anisotropy relative to the control ([3]; 10 µM): -2.04±0.17%
- Changes in TMA-DPH anisotropy relative to the control ([3]; 20 µM): 0.86±0.02%
- Changes in TMA-DPH anisotropy relative to the control ([3]; 30 µM): -7.43±0.30%
- Changes in TMA-DPH anisotropy relative to the control ([4]; 1 µM): -5.61±0.35%
- Changes in TMA-DPH anisotropy relative to the control ([4]; 5 µM): -2.41±0.11%
- Changes in TMA-DPH anisotropy relative to the control ([4]; 10 µM): 1.85±0.06%
- Changes in TMA-DPH anisotropy relative to the control ([4]; 20 µM): 1.35±0.15%
- Changes in TMA-DPH anisotropy relative to the control ([4]; 30 µM): 4.73±0.21%
- Changes in DPH anisotropy relative to the control ([5]; 1 µM): -8.87±0.24%
- Changes in DPH anisotropy relative to the control ([5]; 5 µM): -12.33±0.13%
- Changes in DPH anisotropy relative to the control ([5]; 10 µM): -14.45±0.24%
- Changes in DPH anisotropy relative to the control ([5]; 20 µM): -16.33±0.38%
- Changes in DPH anisotropy relative to the control ([5]; 30 µM): -12.45±0.57%
- Changes in DPH anisotropy relative to the control ([6]; 1 µM): -9.06±0.14%
- Changes in DPH anisotropy relative to the control ([6]; 5 µM): -9.32±0.41%
- Changes in DPH anisotropy relative to the control ([6]; 10 µM): -6.55±0.22%
- Changes in DPH anisotropy relative to the control ([6]; 20 µM): -8.84±0.31%
- Changes in DPH anisotropy relative to the control ([6]; 30 µM): -7.33±0.24%
- Kd [7]: 11.5 ± 2.07 µM
- Kd [8]: 9.89 ± 1.96 µM
- Stern Volmer constant KSV [9]: 22.46 ± 1.00 × 10^3 M^−1
- number of binding sites n [9]: 1.03 ± 0.05
- change in Particle Number (PN) (pHbApr-1-Neo plasmid DNA; comp/bp 1.0–5.0): no changes
- diffusion time (tD), plateau (pHbApr-1-Neo plasmid DNA; comp/bp 1.0–5.0): 25 to 28 ms
- lifetime (LT) (pHbApr-1-Neo plasmid DNA; comp/bp 1.0–5.0, decrease from 3.5 ns): about 2.3 ns
- decrease in the diffusion time (tD) (pHbApr-1-Neo plasmid DNA; comp/bp = 0.8): tenfold
- lifetime (LT) (pHbApr-1-Neo plasmid DNA; comp/bp = 0.8, plasmid alone 4.25 ns): about 3.5 ns
- Particle Number (PN) (pHbApr-1-Neo plasmid DNA; comp/bp = 0.8): about 1.2
- diffusion time (tD) (pHbApr-1-Neo plasmid DNA; comp/bp = 0.8): 7.0 ms
- changes in plasmid tD, lower compared to those obtained for Pt 3-glc (pHbApr-1-Neo plasmid DNA; comp/bp up to 0.8): about 2 fold
- decrease in tD compared to the initial plasmid diffusion time (pHbApr-1-Neo plasmid DNA; plateau, comp/bp 1.0–5.0): twofold

Structure (SMILES): COc1cc(-c2[o+]c3cc(O)cc(O)c3cc2OC2OC(CO)C(O)C(O)C2O)cc(O)c1O (stereo not drawn) [Pt 3-glc, Petunidin 3-O-glucoside]
- Changes in MC540 fluorescence intensity relative to the control ([1]; 1 µM): 6.95±0.35%
- Changes in MC540 fluorescence intensity relative to the control ([1]; 5 µM): 10.52±0.57%
- Changes in MC540 fluorescence intensity relative to the control ([1]; 10 µM): 17.35±0.69%
- Changes in MC540 fluorescence intensity relative to the control ([1]; 20 µM): 31.49±1.78%
- Changes in MC540 fluorescence intensity relative to the control ([1]; 30 µM): 42.63±0.74%
- Changes in MC540 fluorescence intensity relative to the control [1, 10]: 42.6 ± 0.7%
- Changes in MC540 fluorescence intensity relative to the control ([2]; 1 µM): 13.68±0.65%
- Changes in MC540 fluorescence intensity relative to the control ([2]; 10 µM): 28.28±3.62%
- Changes in MC540 fluorescence intensity relative to the control ([2]; 20 µM): 41.75±7.08%
- Changes in MC540 fluorescence intensity relative to the control ([2]; 30 µM): 58.91±14.03%
- Changes in MC540 fluorescence intensity relative to the control [2, 10]: 58.9 ± 14.0%
- Changes in TMA-DPH anisotropy relative to the control ([3]; 1 µM): -3.47±0.16%
- Changes in TMA-DPH anisotropy relative to the control ([3]; 5 µM): -2.18±0.02%
- Changes in TMA-DPH anisotropy relative to the control ([3]; 10 µM): -2.04±0.07%
- Changes in TMA-DPH anisotropy relative to the control ([3]; 20 µM): 0.91±0.03%
- Changes in TMA-DPH anisotropy relative to the control ([3]; 30 µM): -2.20±0.06%
- Changes in TMA-DPH anisotropy relative to the control ([4]; 1 µM): -2.24±0.09%
- Changes in TMA-DPH anisotropy relative to the control ([4]; 5 µM): -0.99±0.03%
- Changes in TMA-DPH anisotropy relative to the control ([4]; 10 µM): 1.63±0.07%
- Changes in TMA-DPH anisotropy relative to the control ([4]; 20 µM): -0.47±0.02%
- Changes in TMA-DPH anisotropy relative to the control ([4]; 30 µM): 3.60±0.11%
- Changes in DPH anisotropy relative to the control ([5]; 1 µM): -5.67±0.28%
- Changes in DPH anisotropy relative to the control ([5]; 5 µM): -9.84±0.13%
- Changes in DPH anisotropy relative to the control ([5]; 10 µM): -9.71±0.15%
- Changes in DPH anisotropy relative to the control ([5]; 20 µM): -7.55±0.12%
- Changes in DPH anisotropy relative to the control ([5]; 30 µM): -6.11±0.03%
- Changes in DPH anisotropy relative to the control ([6]; 1 µM): -7.54±0.13%
- Changes in DPH anisotropy relative to the control ([6]; 5 µM): -7.10±0.35%
- Changes in DPH anisotropy relative to the control ([6]; 10 µM): -7.11±0.42%
- Changes in DPH anisotropy relative to the control ([6]; 20 µM): -7.30±0.53%
- Changes in DPH anisotropy relative to the control ([6]; 30 µM): -7.24±0.48%
- Kd [7]: 29.3 ± 5.43 µM
- Kd [8]: 46.9 ± 6.8 µM
- Stern Volmer constant KSV [9]: 5.50 ± 0.94 × 10^3 M^−1
- number of binding sites n [9]: 0.92 ± 0.04
- decrease in the diffusion time (tD) (pHbApr-1-Neo plasmid DNA; comp/bp = 1): ~20 fold
- lifetime (LT) (pHbApr-1-Neo plasmid DNA; comp/bp = 1, plasmid alone 4.25 ns): about 3.0 ns
- Particle Number (PN) (pHbApr-1-Neo plasmid DNA; comp/bp = 1): about 0.7
- diffusion time (tD) (pHbApr-1-Neo plasmid DNA; comp/bp = 1): 3.5 ms
